# Test results as given in patent publication US20250186393A1 (SANOFI, priority 2022, published 2025).
# What was measured:
# [1] = AMEERA-3 safety: treatment-emergent adverse events, safety population; assay type: in vivo
# From the text: Secondary endpoints are defined as follows: • Overall survival: the time interval from the date of randomization to the date of documented death (due to any cause); • Objective response rate: the proportion of participants who have a confirmed complete response (CR) or partial response (PR), as best overall response (BOR) derived from overall response determined by ICR as per RECIST 1.1, from the date of randomization to the date of end of treatment; • Disease control rate: the proportion of participants who have a confirmed CR, PR, stable disease (SD), or Non-CR/Non-PD as BOR determined by ICR as per RECIST 1.1 from the date of randomization to the date of end of treatment; • Clinical benefit rate: the proportion of participants who have a confirmed CR, PR, SD, or Non-CR/Non-PD for at least 24 weeks determined by ICR as per RECIST 1.1, from the date of randomization to the date of end of treatment; • Progression-free survival as per ESR1 status: determined at Cycle 1 Day 1; • Overall safety profile: evaluated by adverse events/serious adverse events and laboratory abnormalities.
# Concerning monitoring of adverse events, mention may be made of adverse events of special interest (AESI), who correspond to an adverse event (serious or nonserious) of scientific and medical concern specific to the Sponsor's product or program, for which ongoing monitoring and immediate notification by the Investigator to the Sponsor is required. Such events may require further investigation in order to characterize and understand them. For example: pregnancy of a participant or of a female partner of a participant entered in a study with IMP, symptomatic overdose with IMP, increase in ALT of a grade equal to or greater than 3, or photosensitivity.
# The analysis populations were defined as follows: • Enrolled population: all patients who signed the informed consent form. • Intent-to-treat (ITT) population: all patients from the enrolled population and for whom there was a confirmation of successful allocation of a randomization number by Interactive Response Technology (IRT). Patients were analyzed according to the treatment arm assigned at randomization. • Safety population: all patients randomly assigned to study intervention and who took at least one dose of study intervention. Patients were analyzed according to the treatment arm they actually received.
# The overview of adverse events (TEAEs: Treatment Emergent Adverse Events; SAEs: Serious Adverse Events; AESI: Adverse Events of Special Interest) is presented in Table 13.
# UGT1A1 = molecular target: T1, UGT1A1 (Homo sapiens, UniProt P22309); settings: cited from earlier work
# T1 sequence (P22309 26-533): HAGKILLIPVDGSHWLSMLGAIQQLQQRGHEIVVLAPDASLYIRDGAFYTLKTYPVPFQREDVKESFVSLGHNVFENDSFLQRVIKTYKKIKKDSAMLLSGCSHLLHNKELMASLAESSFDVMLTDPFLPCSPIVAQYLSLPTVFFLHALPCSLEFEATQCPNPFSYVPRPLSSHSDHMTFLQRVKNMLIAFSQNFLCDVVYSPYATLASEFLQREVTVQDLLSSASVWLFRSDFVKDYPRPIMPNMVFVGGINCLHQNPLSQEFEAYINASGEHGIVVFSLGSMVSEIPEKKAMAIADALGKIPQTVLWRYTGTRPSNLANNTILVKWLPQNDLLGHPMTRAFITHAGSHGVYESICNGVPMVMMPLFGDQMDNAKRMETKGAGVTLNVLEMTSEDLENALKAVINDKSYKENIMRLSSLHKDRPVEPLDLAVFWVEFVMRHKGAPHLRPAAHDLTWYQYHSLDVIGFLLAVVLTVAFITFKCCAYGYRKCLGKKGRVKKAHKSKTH
# [2] = test system: estrogen receptor (ER)-positive, HER2-negative locally advanced or metastatic breast cancer; assay: AMEERA-3 open label randomized Phase 2 trial, efficacy (PFS, OS, ORR, CBR, DCR per RECIST 1.1 by ICR); assay type: in vivo, human
# UGT1A4 = molecular target: T2, UGT1A4 (Homo sapiens, UniProt P22310); settings: cited from earlier work
# T2 sequence (P22310 29-534): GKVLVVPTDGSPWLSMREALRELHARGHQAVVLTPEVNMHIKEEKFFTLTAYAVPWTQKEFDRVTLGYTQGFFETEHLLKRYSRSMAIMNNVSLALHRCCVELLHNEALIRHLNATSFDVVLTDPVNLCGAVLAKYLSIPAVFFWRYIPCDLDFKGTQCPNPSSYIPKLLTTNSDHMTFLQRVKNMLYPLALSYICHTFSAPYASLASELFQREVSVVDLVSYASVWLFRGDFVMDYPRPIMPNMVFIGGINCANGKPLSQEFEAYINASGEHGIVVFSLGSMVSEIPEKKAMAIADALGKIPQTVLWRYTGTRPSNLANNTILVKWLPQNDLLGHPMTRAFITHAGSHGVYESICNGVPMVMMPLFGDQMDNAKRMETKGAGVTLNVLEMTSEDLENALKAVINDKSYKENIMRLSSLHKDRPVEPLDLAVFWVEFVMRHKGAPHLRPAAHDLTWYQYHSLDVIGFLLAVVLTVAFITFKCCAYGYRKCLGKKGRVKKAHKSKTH
# [3] = amcenestrant 400 mg QD, Kaplan-Meier
smiles,measurement,setting,value
"O=C(O)c1ccc2c(c1)CCCC(c1ccc(Cl)cc1Cl)=C2c1ccc(O[C@H]2CCN(CCCF)C2)cc1 [Amcenestrant, 6-(2,4-dichlorophenyl)-5-[4-[(3S)-1-(3-fluoropropyl)pyrrolidin-3-yl]oxyphenyl]-8,9-dihydro-7H-benzo[7]annulene-2-carboxylic acid]",Bradycardia/QTc prolongation,[1]; amcenestrant treatment arm,no bradycardia/QTc prolongation is observed
same,Gastrointestinal disorders,[1]; mostly of Grade 1 or 2,44.8%
same,Skin and subcutaneous tissue disorders,[1]; mostly of Grade 1 or 2,18.9%
same,"Participants with any AESI, %",[1]; safety population,(0.7) %
same,"Participants with any TEAE leading to treatment discontinuation, %",[1]; safety population,(3.5) %
same,"Participants with any TEAE, %",[1]; safety population,(82.5) %
same,"Participants with any grade ≥3 TEAE, %",[1]; safety population,(21.7) %
same,"Participants with any treatment emergent SAE, %",[1]; safety population,(16.1) %
same,"Participants with any treatment-related TEAE, %",[1]; safety population,(44.8) %
same,"Participants with any grade 5 TEAE, %","[1]; safety population, during the treatment period",(3.5) %
same,Substrate of UGT1A1,UGT1A1,substrate
same,Reduction in risk for disease progression or death,"[2]; ESR1 mutation at baseline, amcenestrant compared to PCEM",10.0%
same,Progression-free survival rate at 12 months,[2]; [3],20.4%
same,Progression-free survival rate at six months,[2]; [3],35.5%
same,Substrate of UGT1A4,UGT1A4,substrate
